Reference: PMC5201331, “Subchronic Toxicities of HZ1006, a Hydroxamate-Based Histone Deacetylase Inhibitor, in Beagle Dogs and Sprague-Dawley Rats” (International Journal of Environmental Research and Public …, 2016)

Assays:
SD rats = assay: Subchronic toxicity test in SD rats: overall (NOAEL, urinalysis, bone marrow, histopathology); type: in vivo, Sprague-Dawley (SD) rats; details: daily oral administration, 28 days
Procedure: (§1) The rats that were judged suitable for the subchronic toxicity study were randomly divided into four groups (10 rats/sex/group). The rats received the test sample by gavage once daily for 28 days. HZ1006 was administered to the rats at doses of 120, 60, 20 and 0 (control) mg/kg, and the dosage volume was 5 mL/kg. Half of the 80 rats (half male and half female) were selected randomly according to body weight and dissected at d28. The remaining rats were dissected at d42.
(§2) A Micro AUTION MA-4260 Autoanalyzer from Arkray Global Business, Inc. (kyoto, Japan), was used to analyze the animal urine samples. Parameters such as pH, specific gravity, nitrites, leukocytes, glucose, protein, urobilinogen, ketones, occult blood, bilirubin, and hemoglobin were tested.
(§3) Bone marrow samples were obtained according to the methods reported previously. We classified the bone marrow cells by immersion objective. […]

[1] = as above; type: in vivo, Sprague-Dawley (SD) rats; details: both sexes, Sprague-Dawley, rat, in vivo, daily oral administration, read-out: NOAEL (No Observed Adverse Effect Level)
Procedure: as §1, §2, §3

CCCCCCCNc1cc(/C=C/C(=O)NO)ccc1OCCN(CC)CC [HZ1006]
minimum toxic dose (SD rats): 120 mg/kg
NOAEL at 28 days [1]: 60 mg/kg
